Assays:
[1] = Cytotoxicity study, summary statements over human-derived cell lines; type: cell-based; settings: HepG2 and HEK-293 cells, THP-1, HepG2, HEK-293, 10 and 25 µM, Table 2
Description: (§1) The cytotoxicity of active compounds was tested on LLC-MK2, Vero, THP-1, HEK-293, HepG2 and C6/36 cell lines. Each cell line was seeded at 1 × 10^4 cells per well in 96-well plates and incubated overnight. The compounds were added at the indicated concentrations and the cells were incubated for 48 h, unless indicated otherwise. Cell viability was analyzed using CellTiter 96® AQueous One Solution Cell Proliferation Assay kit (Promega, Wisconsin-Madison, USA) according to manufacturer’s protocol. The plate was read at the A 450 in a VICTORTM × 3 microplate reader (PerkinElmer, Massachusetts, USA). Percent cell viability in compound-treated wells was calculated using reference DMSO-treated cells as a 100% cell viability control. The CC50 values of LLC/MK2 cells were calculated using nonlinear regression analysis. Results were reported as means and standard error of the means (SEM) of CC50 values of three independent experiments in which each drug concentration was tested in triplicate.

[2] = Cytotoxicity study (CellTiter 96 AQueous One) in THP-1 cells; type: cell-based; settings: human, THP-1 cells, read-out: Cells viability (%, means ± SEM) THP-1
Description: as §1

[3] = Stability of compound in DMSO at room temperature by 1H-NMR; type: physicochemical; settings: 4 mM in DMSO, sampled at 24, 72, 120 h
Description: The FV13 (6,8-dibromo-5,7-dihydroxyflavone) was tested for the stability by dissolving in DMSO at a concentration of 4 mM FV13 solution. The solution was incubated at room temperature and sampled out at 24, 72, and 120 hours for ^1H-NMR analysis.

DENV2 [4] = experiment: Attachment inhibition study, DENV2 with LLC/MK2 cells; type: cell-based, Dengue virus; settings: 10 µM
Description: We further explored whether the compound would block the viral infectivity by neutralization. We set up the attachment inhibition assay by incubating DENV2 with LLC/MK2 cells at 4 °C for 1 h and FV13 was added before adsorption (pre-attachment), simultaneous with adsorption (co-attachment), and after adsorption (post-attachment) (Fig. 5A). DMSO was used as a mock treatment and added in parallel to FV13 to the experiment. Cells were incubated until cytopathic effects appeared under microscope (Fig. 5B). Supernatants and cells were then analyzed by plaque titration (Fig. 5C) and RT-qPCR (Fig. 5D), respectively. […] Therefore, the major targets of FV13 inhibition appear to function after attachment, possibly at the fusion or translation steps. […] (Supplementary 1). Therefore, fusion was unlikely the major target of FV13. We concluded that one of the major targets of FV13 functions early after infection and attachment and fusion are not critically affected. Flavivirus translation initiates within 1 to 5 hpi[26].
(§2) After supernatant collection, the remaining cells in experimental plates were extracted for viral RNAs using TRIzol reagent (Invitrogen, California, USA) according to the manufacturer’s protocol. The samples were loaded into the Direct-zol™ RNA MiniPrep (Zymo research, California, USA) and quantified by Nanodrop spectrophotometry (Eppendorf, New York, USA). The RT-qPCR was performed with a Step-OnePlus Real-Time PCR System (Applied Biosystems, California, USA.) with 1 × Power SYBRGreen PCR Master Mix, 400 nM each of capsid primers[40] or 250 nM of NS1 primers[41] and 0.1 µg of total RNA. The reactions were then cycled at 48 °C 30 min and 95 °C 10 min, followed by 45 cycles of 95 °C for 20 s (denaturation), 55 °C for 30 s (annealing), 72 °C for 30 s (extension). Each sample was analyzed in triplicated and results were confirmed by two independent experiments.
The attachment assay was adapted from Lani et al., 2016 and Jin et al., 2015 [42],[43]. Briefly, LLC/MK2 cells were seeded in 24-well plates and incubated as previously described. […]

DENV2 (NGC) = experiment: Antiviral efficacy (EC50) in virus infected LLC/MK2 cells, plaque assay; type: cell-based, Dengue virus
Description: Compound at various concentrations were added to virus infected LLC/MK2 cells and viral titers were accessed by plaque titration of supernatants as previously described.
LLC/MK2 cells were seeded at 5 × 10^4 cells into each well of 24-well plate and incubated overnight at 37 °C under 5% CO2. Cells were infected with DENV2 at the multiplicity of infection (M.O.I.) of 0.1, unless indicated otherwise, for 1 h with gentle rocking every 15 min. Cells were washed with phosphate buffer saline (PBS) and incubated with 1 ml of MEM medium supplemented with 1% FBS as previously described. The compounds were prepared in dimethylsulfoxide (DMSO) at the indicated concentrations before addition to viral infected cells. Supernatants were collected after 5 day incubation and analyzed by plaque titration[9].
Compounds were prepared in DMSO at 8–12 different concentrations and added to virus infected cells as previously described. Supernatants were collected and the EC50 values were calculated from nonlinear regression analysis.

DENV2 NS2B/3 protease = biological target: T1, DENV2 NS2B/3 protease (Dengue virus type 2, UniProt P14340); experiment: In vitro protease assay; type: biochemical; settings: in words
T1 construct: DENV2 NS2BH-(QR)-NS3pro enzyme3
Description: Assays were performed in triplicate in a 96-well half area black plate
(Greiner Bio-One, Monroe, NC, USA). The reaction mixture (100 μl) contained
200 mM Tris-HCl, pH 9.5, 30% glycerol, 0.1% CHAPS, 1% DMSO, 50 nM
DENV2 NS2BH-(QR)-NS3pro enzyme3, 10 µM fluorogenic tetrapeptide
substrate, Bz-Nle-Lys-Arg-Arg-AMC, and designated concentrations of
compounds in DMSO (concentration of 1%). The compound-enzyme mixture
was pre-incubated for 15 min at room temperature before addition of the
substrate. The reaction was continued at 37 οC for 30 min. The release of AMC
from the substrate was recorded every 1.5 min at 380 nm excitation and 460 nm
emission in a SpectraMax Gemini EM spectrofluorometer (Molecular Devices,
Sunnyvale, CA). DMSO alone (concentration of 1%) was used as the no-inhibitor
control (100% protease activity) and the bovine pancreatic trypsin inhibitor
protease, was used at 5 µM in DMSO concentration of 1% as a positive control
(0% protease activity). Data were plotted and reported as percent inhibition of
each compound to protease activity.
The in vitro enzymatic protease assay. Compounds were prepared three
concentrations and mixed with protein, added substrate (Bz)-Nle-Arg-arg-AMC
and measured at 460 nm with an excitation at 380 nm.

DENV2 [5] = experiment: Time-of-drug addition study (TOA) in DENV2 infected LLC/MK2 cells; type: cell-based, Dengue virus; settings: 10 μM; for decrease of DENV2 plaque titer from DMSO-treated baseline: supernatants
Description: To access the stage of the viral life cycle affected by FV13, we performed a time-of-addition assay. Briefly, FV13 (10 μM) was added to DENV2 infected LLC/MK2 cells at various time points as described in Methods section. DMSO was added in parallel as a control treatment. Supernatants were collected for plaque titration and cell lysates were collected for RT-qPCR analysis. […] If the drug was added at 12 hpi or later, only 1-log decrease was observed (Fig. 4A,B). […] The first molecular target could interact with FV13 earlier than 2 hpi and its effect was still visible until 8–10 hpi. The other target could locate at late post-replication steps such as assembly, maturation, or release because a 1-log discrepancy between plaque and RT-qPCR titers indicated genome replication was unaffected. Further investigations will reveal insights into the actual target of this compound.
as §2
LLC/MK2 cells were seeded in 24-well plate and incubated as previously described. Cells were then infected with DENV2 (M.O.I. of 0.1). FV13 (10 µM) was added at various time points, early time points (−1, 0, 2, 4, 6, 8, 10, and 12 hpi) and late time points (12, 14, 16, 20, and 24 hpi) and the plates were incubated for 5 days. Supernatants were collected to determine the viral titer by plaque titration assay and the cells were collected to determine viral RNA content by RT-qPCR. Results were confirmed by three independent experiments in which each time point was tested in duplicate.

[6] = Cytotoxicity study (CellTiter 96 AQueous One) in LLC/MK2 cells; type: cell-based; settings: rhesus monkey, LLC/MK2 cells
Description: as §1

T1 sequence (P14340 1398-1437): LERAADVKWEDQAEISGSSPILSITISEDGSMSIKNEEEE
T1 sequence (P14340 1476-1653): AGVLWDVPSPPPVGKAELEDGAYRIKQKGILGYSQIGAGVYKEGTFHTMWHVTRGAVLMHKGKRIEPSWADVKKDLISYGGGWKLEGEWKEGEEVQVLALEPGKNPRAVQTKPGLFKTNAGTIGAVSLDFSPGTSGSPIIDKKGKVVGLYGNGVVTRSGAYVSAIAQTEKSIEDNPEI

With `O=c1cc(-c2ccccc2)oc2c(Br)c(O)c(Br)c(O)c12` [FV13, 6,8-dibromo-5,7-dihydroxyflavone] the viability at 48 h [1] was > 80%, the viability at 48 h, 10 µM ([2]; 10 μM) was > 100% and the viability at 48 h, 25 µM ([2]; 25 μM) was 86.9 ± 2.1%. For the same compound, the “stability (no decomposition by NMR)” value [3] was “at least 120 h”, the “viral RNA reduction” value (DENV2 [4]; post-attachment, intracellular RNA, RT-qPCR) was 64.07 ± 3.37% and the plaque titer reduction (DENV2 [4]; post-attachment, supernatants, 2 days) was 40.59 ± 2.83%. The “interference with pre- or co-attachment steps” value (DENV2 [4]; pre-attachment and co-attachment, in words) was “did not interfere with either pre- or co-attachment steps”, the “S.I. Selectivity index (CC50/EC50)” value (DENV2 (NGC); DENV2 (NGC), CC50 in LLC/MK2) was 30.43 and the EC50 (DENV2 (NGC); Dengue virus, DENV2, LLC-MK2) was 1.47 ± 0.86 µM. The “targeting of DENV2 protease in the in vitro protease assay” value (DENV2 NS2B/3 protease) was “did not target DENV2 protease”, the “decrease of DENV2 plaque titer from DMSO-treated baseline” value (DENV2 [5]; drug added at 12 hpi or later) was 1 log and the “decrease of DENV2 plaque titer from DMSO-treated baseline” value (DENV2 [5]; drug added between 2–10 hpi) was 2 log. For the same compound, the “intracellular viral RNA versus DMSO-treated samples” value (DENV2 [5]; drug addition at 12–24 hpi, RT-qPCR, in words) was “no titer difference”, the “decrease of intracellular viral RNA” value (DENV2 [5]; drug addition between 2–8 hpi, RT-qPCR) was 1 log and the viability at 48 h, 10 µM ([6]; 10 μM, 48 h, read-out: Cells viability (%, means ± SEM) LLC/MK2) was 81 ± 2.69%. The viability at 48 h, 25 µM ([6]; 25 μM, 48 h, read-out: Cells viability (%, means ± SEM) LLC/MK2) was 59.4 ± 2.42% and the CC50 at 48 h ([6]; 48 h incubation, read-out: CC50 (cytotoxic concentration)) was 44.3 ± 2.9 µM.

Reference: article PMC5651866, “Halogenated Chrysins Inhibit Dengue and Zika Virus Infectivity” (Scientific Reports, 2017)
